Experimental data reported in US5773446A, “Diamino pyrimidines” (Hoffmann-La Roche Inc., priority 1995, dated 1998).

Tests used:
[1] = biological target: purified DHFR of the reference strain S. aureus ATCC 25923 (Staphylococcus aureus, UniProt P0A017); experiment: Inhibition of purified DHFR of reference strain S. aureus ATCC 25923; type: biochemical
Excerpt: (§1) The inhibition of this enzyme was taken as a measurement for the antibacterial activity.

[2] = biological target: T1, purified DHFR of the opportunistic pathogen P. carinii (Pneumocystis carinii, UniProt P16184); experiment: biochemical
T1 sequence (P16184 1-206): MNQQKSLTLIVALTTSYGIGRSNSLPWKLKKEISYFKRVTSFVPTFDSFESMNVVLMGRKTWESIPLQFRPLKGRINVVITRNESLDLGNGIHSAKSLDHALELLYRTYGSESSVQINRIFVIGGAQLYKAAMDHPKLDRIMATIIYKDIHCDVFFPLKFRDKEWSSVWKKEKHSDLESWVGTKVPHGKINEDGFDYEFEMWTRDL
Excerpt: as §1

Sequence of purified DHFR of the reference strain S. aureus ATCC 25923 (P0A017 whole entry): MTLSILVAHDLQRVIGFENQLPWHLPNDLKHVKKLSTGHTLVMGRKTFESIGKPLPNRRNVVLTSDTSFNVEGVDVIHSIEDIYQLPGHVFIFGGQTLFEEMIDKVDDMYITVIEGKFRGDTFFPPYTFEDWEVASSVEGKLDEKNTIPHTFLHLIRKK

## COc1cc(Cc2cnc(N)nc2N)c2c(c1OC)OC(CCCC(=O)O)C=C2 (racemic) [Example 6, (RS)-4-[5-(2,4-diamino-pyrimidin-5-ylmethyl)-7,8-dimethoxy-2H-1-benzopyran-2-yl]-butyric acid]
[1]
  IC50: 5 nM
[2]
  IC50: 220 nM

## CCCCCC1C=Cc2c(Cc3cnc(N)nc3N)cc(OC)c(OC)c2O1 (racemic) [Example 7, (RS)-5-(7,8-dimethoxy-2-pentyl-2H-1-benzopyran-5-ylmethyl)-pyrimidine-2,4-diamine]
[1]
  IC50: 16 nM
[2]
  IC50: 2800 nM

## COc1cc(Cc2cnc(N)nc2N)c2c(c1OC)OC(C(C)C)C=C2 (racemic) [Example 8, (RS)-5-(2-isopropyl-7,8-dimethoxy-2H-1-benzopyran-5-ylmethyl)-pyrimidine-2,4-diamine]
[1]
  IC50: 1 nM
[2]
  IC50: 1000 nM

## COc1cc(Cc2cnc(N)nc2N)c2c(c1OC)OC(CC(C)C)C=C2 (racemic) [Example 9, (RS)-5-(2-isobutyl-7,8-dimethoxy-2H-1-benzopyran-5-ylmethyl)-pyrimidine-2,4-diamine]
[1]
  IC50: 1 nM
[2]
  IC50: 3000 nM

## COc1c(OCCCC(=O)O)cc(Cc2cnc(N)nc2N)c2c1OCC=C2 [Example 10, 4-[5-(2,4-diamino-pyrimidin-5-ylmethyl)-8-methoxy-2H-1-benzopyran-7-yloxy]-butyric acid]
[1]
  IC50: 5 nM
[2]
  IC50: 40 nM
